Results: US7037502B2, “Peptide with the amino acid sequence of KVLDGQDP having anti-inflammatory properties” (priority 2001, dated 2006)
Entries after “also recorded” stand apart in the source; their conditions may differ.

How the values were obtained:
PLA2 activated by TGase = molecular target: T1, PLA2 activated by TGase (Cavia cutleri, UniProt P08587); assay: Inhibitory effect of synthetic peptides on PLA2 activated by TGase in vitro; type: biochemical, Bovine; settings: peptides 1×10^−8 M, preincubated with 0.001 Unit TGase 15 min at 37° C.
T1 construct: pre-incubated with 0.001 Unit TGase (Guinea pig liver, Sigma); purchased Sigma
T1 sequence (P08587 2-690 limits assumed): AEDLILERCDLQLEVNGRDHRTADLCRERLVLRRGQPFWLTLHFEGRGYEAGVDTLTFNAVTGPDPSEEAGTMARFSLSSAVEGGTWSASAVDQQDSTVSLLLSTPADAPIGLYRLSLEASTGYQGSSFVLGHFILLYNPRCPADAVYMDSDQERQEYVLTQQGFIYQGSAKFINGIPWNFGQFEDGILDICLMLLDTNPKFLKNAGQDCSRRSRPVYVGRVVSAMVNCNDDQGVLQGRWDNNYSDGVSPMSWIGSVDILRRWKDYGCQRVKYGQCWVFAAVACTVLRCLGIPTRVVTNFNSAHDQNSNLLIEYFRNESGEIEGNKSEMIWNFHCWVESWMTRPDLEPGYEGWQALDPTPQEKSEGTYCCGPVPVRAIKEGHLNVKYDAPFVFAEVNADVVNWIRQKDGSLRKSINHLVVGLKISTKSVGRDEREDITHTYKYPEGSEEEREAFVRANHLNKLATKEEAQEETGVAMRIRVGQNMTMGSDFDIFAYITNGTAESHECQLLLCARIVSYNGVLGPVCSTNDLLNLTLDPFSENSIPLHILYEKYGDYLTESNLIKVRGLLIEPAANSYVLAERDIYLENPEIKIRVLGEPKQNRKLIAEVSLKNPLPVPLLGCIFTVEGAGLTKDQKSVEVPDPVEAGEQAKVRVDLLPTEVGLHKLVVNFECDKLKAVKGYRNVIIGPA
Procedure: A series of synthetic peptides (1×10^−8 M) were pre-incubated with 0.001 Unit TGase (Guinea pig liver, Sigma) in […] of assay buffer (75 mM Tris-Cl, pH 9.0, 5 mM CaCl2, 1 mg/ml fatty acid free bovine serum albumin) for 15 min at 37° C. We employed a negative control as assay buffer without TGase, and a positive control as TGase without peptides. After pre-incubation, […] of 1-acyl-2-[1-^14C] arachidonic acid-glycerophospho -ethanolamine (about 2×10^5 dpm) was added in pre-incubated mixture, and incubated for 1 hr at 37° C. The reaction was terminated by adding 0.75 ml of Dole's reagent, and followed the same procedure described as above.
For inhibitory test of the peptides given, each value is the mean of data from three separate experiments (S.D.<10%). The increased PLA2 activity by TGase was determined as 100% that was 11.22 pmole arachidonyl/hr. % Inhibition was shown in FIG. 3.

[1] = test system: allergic conjunctivitis to ragweed (Ambrosia trifida); assay: Allergic conjunctivitis to ragweed in guinea pig: clinical scores (conjunctival edema and redness); type: in vivo, Hartley female guinea pig; settings: for Statistical evaluation of clinical scores (Mann-Whitney test), P compared to Dexamethasone / Statistical evaluation of clinical scores (Mann-Whitney test), P compared to Livostine / Statistical evaluation of clinical scores (Mann-Whitney test), P compared to No treatment group: conjunctival edema and redness score 0-4+, 20 min after allergen challenge, 12 eyes per group, eye drops
Procedure: The peptides of the present invention were analyzed in experimental model of allergic conjunctivitis to ragweed (giant ragweed; Ambrosia trifida) in guinea pig. Hartley strain of guinea pig was selected according to previous reports of conjunctival anaphylaxis (Calonge M., et al., Acta Ophthalmol 68; 470–476, 1990) and females were chosen based on the sex dimorphism of ocular mucosal immunity with the protective role of male hormones (Saruya S., et al., Act Soc Ophthalmol Jap 72; 833–845, 1968). The conjunctival redness and edema are main signs of seasonal allergic conjunctivitis and eosionphil infiltration is the hallmark of the conjunctival histology in patients with allergic conjunctivitis (Abelson M B., et al., Arch Ophthalmol. 101; 555–556, 1983; Butrus S I., et al., Int. Ophthalmol. Clin. 28; 324–328, 1988) 86 Hartley female guinea pigs, 200–250 g were housed in the animal facilities of the Asan Institute for Life Sciences (Korea), given guinea pig chow and water ad libitum, and cared for in accordance with the Declaration of Helsinki and the National Institute of Health Guide to the Care and Use of the Laboratory Animals (Korea). […] On day 15, immunized guinea pigs were divided 14 groups, 6 for each group. 11 anti-inflammatory peptides including new recombinants, dexamethasone eye drop (Maxidex, 0.1% dexamethasone, Alcon) and anti-histamine eye drop (Livostin, levocabastine, Janssen) were used for 13 groups, and no treatment for one group. Normal controls were employed as 6 non-immunized and non-treated guinea pigs. […] All the procedures were followed experimental model of allergic conjunctivitis described by Merayo-Lloves et al (Experimental model of allergic conjunctivitis to ragweed in guinea pig. Curr. Eye Res. 14; 487–494, 1995). Anti-inflammatory peptides were resolved in sterile saline (100 μmol/40 μl concentration). All peptides and dexamethasone eye solutions were challenged 3 hour prior to the last pollen application on day 15, 10 minutes after pollen application, and 4 times thereafter at the 3 hour interval. Conjunctival edema and redness were judged in room light and under an operating microscope (Zeiss, Germany). The evaluation was performed in a masked fashion at 20 min after allergen challenge and each clinical sign was scored on a scale 0–4+ (0 absent, 1+ minimal, 2+ mild, 3+ moderate, 4+ severe), adapted for guinea pig from previous report (Merayo-Lloves et al: Experimental model of allergic conjunctivitis to ragweed in guinea pig. Curr. Eye Res. 14; 487–494, 1995). Clinical scores of each group (12 eyes in each group) were analyzed.

Sequence | PLA2 activity activated by TGase (FIG. 3), result in words (PLA2 activated by TGase) | Statistical evaluation of clinical scores (Mann-Whitney test), P compared to Dexamethasone [1] | Statistical evaluation of clinical scores (Mann-Whitney test), P compared to Livostine [1] | Statistical evaluation of clinical scores (Mann-Whitney test), P compared to No treatment group [1] | Clinical signs (conjunctival redness and edema scores), result in words ([1]; n=12, P<0.01, SD<10%, Mann-Whitney test, listed as SEQ ID NO:2)
KVLDGQDP [Peptide R2, synthetic peptide of the invention] | significantly reduced | 0.796 | 0.515 | 0.000 | statistically significant difference from other groups; also recorded: most effective
KVLDPVKG [Peptide R1, synthetic peptide of the invention] | significantly reduced | 0.000 | 0.000 | 0.965 | –
